Experimental data reported in patent publication US20250084056A1, “SUBSTITUTED OXOISOINDOLINYL PIPERIDINE-2,6-DIONE COMPOUNDS” (BRISTOL-MYERS SQUIBB COMPANY, priority 2023, published 2025).
pIC50: −log10 of the molar value. One block for each molecule: values may come before it.

How the values were obtained:
Type in all cases: cell-based
Phospho-Rb (Ser807/811) = assay: Phospho-Retinoblastoma (pRB) Cellular Assay; details: Homo sapiens, OVCAR-3, NIH OVCAR3 cells, 24 hours; for pIC50: concentration giving 50% response; for Emax: maximum response, reference compound at 10 μM = 100%, read-out: pRB Ymax
Experimental: Phospho-Retinoblastoma (pRB) Cellular Assay
NIH OVCAR3 (HTB-161, American Type Culture Collection, Manassas VA) cells were grown up to passage 10 in culture media made up of RPMI (11835-030 Gibco, Grand Island NY), 20% HI FBS (16140-071, Gibco, Grand Island NY), and 0.01 mg/mL insulin from bovine pancreas (I6634-1G, Sigma Aldrich, St. Louis, MO).
The cells were seeded in a 384-well CulturPlate (6007688, Perkin Elmer, Waltham MA) at a density of 10,000 cells/well in 20 μL of the above culture media and incubated overnight at 37° C. and 5% CO2.
The next day, cells were treated using an Echo 650 (Beckman Coulter, Indianapolis IN) acoustic dispenser with 40 nL of compounds dissolved in DMSO at the appropriate serial dilutions (10 mM to […]). Cells were then incubated for 24 hours as above.
After 24 hours elapsed, media was removed from each well and shortly after 20 μL of the following mix was added: 12 μL deionized water, 4 μL lysis buffer, 4 μL of reconstituted antibody mix, and 1:100 phosphatase inhibitor. These components belong to the Phospho-Rb (Ser807/811) Cellular Kit (64RBS807PEY, Perkin Elmer, Waltham MA).
Plates were sealed and incubated away from light at room temperature for at least 4 hours before reading them on an EnVision plate reader (Perkin Elmer, Waltham MA) according to the kit manufacturer's protocol. The reference compound, N-(5-{[(5-tert-butyl-1,3-oxazol-2-yl)methyl]sulfanyl}-1,3-thiazol-2-yl)piperidine-4-carboxamide, at 10 μM was used to define 100% response. Assay results for each compound were reported as IC50, the concentration giving 50% response, and Ymax, the maximum response observed with the compound.

GSPT1 = GSPT1 (Homo sapiens, UniProt P15170+Q96SW2); assay: GSPT1 Cellular Degradation Assay (DF15-GSPT1-ePL); parameters: expressed in transfected cells; details: DF15-GSPT1-ePL cells, 20 hours
GSPT1, sequence (P15170 whole entry, the tested form may be a part): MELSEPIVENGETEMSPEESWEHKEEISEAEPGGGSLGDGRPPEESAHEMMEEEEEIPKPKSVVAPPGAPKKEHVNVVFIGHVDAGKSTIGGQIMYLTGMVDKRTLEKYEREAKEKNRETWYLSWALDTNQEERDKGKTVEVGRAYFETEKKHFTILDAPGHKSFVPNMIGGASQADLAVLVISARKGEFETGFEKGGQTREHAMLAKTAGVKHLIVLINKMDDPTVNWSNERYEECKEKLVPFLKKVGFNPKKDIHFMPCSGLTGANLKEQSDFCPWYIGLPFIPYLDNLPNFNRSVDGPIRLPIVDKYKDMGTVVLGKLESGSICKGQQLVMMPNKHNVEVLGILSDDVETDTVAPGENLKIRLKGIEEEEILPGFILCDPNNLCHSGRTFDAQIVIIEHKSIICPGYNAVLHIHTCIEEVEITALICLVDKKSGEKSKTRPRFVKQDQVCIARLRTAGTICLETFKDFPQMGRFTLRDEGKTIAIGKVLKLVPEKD
GSPT1, sequence (Q96SW2 whole entry, the tested form may be a part): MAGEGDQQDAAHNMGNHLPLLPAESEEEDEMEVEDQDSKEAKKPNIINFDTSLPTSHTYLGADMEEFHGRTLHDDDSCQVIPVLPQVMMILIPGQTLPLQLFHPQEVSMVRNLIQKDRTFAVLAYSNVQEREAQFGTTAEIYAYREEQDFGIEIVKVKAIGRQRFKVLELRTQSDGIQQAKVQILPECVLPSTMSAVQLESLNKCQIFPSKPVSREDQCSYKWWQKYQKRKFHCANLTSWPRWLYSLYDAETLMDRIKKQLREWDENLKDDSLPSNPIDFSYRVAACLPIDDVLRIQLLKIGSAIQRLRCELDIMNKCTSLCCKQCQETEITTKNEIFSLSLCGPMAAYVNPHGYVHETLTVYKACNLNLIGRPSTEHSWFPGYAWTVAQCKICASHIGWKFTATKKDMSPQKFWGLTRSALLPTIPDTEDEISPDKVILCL
GSPT1, sequence (Q16531 whole entry partner, the tested form may be a part): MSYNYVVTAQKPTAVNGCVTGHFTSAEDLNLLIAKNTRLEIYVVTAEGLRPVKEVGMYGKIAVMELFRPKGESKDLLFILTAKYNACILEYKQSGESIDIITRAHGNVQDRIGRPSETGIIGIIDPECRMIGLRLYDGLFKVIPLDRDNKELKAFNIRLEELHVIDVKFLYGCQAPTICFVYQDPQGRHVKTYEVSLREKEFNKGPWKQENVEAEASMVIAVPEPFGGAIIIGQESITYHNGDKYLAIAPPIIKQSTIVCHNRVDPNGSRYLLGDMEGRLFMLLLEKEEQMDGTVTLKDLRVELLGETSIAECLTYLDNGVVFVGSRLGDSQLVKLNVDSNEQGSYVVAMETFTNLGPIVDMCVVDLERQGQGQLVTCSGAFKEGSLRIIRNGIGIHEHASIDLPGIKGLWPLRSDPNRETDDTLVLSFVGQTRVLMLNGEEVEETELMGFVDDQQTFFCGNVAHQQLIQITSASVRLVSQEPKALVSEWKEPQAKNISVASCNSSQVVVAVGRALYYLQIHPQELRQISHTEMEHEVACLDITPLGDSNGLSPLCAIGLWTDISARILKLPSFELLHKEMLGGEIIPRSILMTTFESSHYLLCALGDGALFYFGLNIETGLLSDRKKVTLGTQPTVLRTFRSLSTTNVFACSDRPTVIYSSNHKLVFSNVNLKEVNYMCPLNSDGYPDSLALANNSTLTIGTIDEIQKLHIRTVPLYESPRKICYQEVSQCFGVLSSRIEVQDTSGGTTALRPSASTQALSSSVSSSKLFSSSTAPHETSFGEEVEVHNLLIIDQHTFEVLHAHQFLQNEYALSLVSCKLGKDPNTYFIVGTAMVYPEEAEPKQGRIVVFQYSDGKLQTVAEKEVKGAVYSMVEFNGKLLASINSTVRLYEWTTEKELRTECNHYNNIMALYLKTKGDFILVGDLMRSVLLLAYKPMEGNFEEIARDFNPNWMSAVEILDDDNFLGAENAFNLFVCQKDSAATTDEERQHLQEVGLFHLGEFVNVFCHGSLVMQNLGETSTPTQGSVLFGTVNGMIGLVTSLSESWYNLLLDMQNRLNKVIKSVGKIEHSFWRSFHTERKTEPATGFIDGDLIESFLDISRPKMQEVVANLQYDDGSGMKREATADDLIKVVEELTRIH
From the text: DF15-GSPT1-ePL was used for intracellular GSPT1 protein degradation detection in form of chemiluminescent signal, which was built on a human DF15 cell line (CVCL_Y429) with conditional co-expression of chimeric GSPT1 (target) and ePL/donor (enhanced ProLabel® by DiscoverX for enzyme fragment complementation with donor-acceptor pairing). The cells used the culture medium in two arrangements for assay and maintenance. During assay, it used Core-RPMI 1640 medium with 10% Fetal Bovine Serum (Heat Inactivated) and 1× Penicillin/Streptomycin; and during passage maintenance, used added ingredients: 0.1 mM NEAA, 1 mM sodium pyruvate, 25 mM Hepes, 0.1% Pluronic F-68, 1× Glutamin, 4 μg/mL Blasticidin (selection agent). Detection was performed on a 1536 well tissue culture plate (Corning #3727) with cells seeded in 3.5 μL core-RPMI 1640 at density of 0.25 million/mL after the pre-titrated test compounds in DMSO on ECHO plate were dispensed onto the assay plate by use of ECHO (liquid handing system via acoustic energy from Labcyte). Assay incubation lasted 20 hours in 37° C. incubator with 5% CO2; then followed by 30 minutes of plate-cooling at room temperature; then detection-reagent-mix was added in 3.5 μL/well with pre-defined proportion of enzyme acceptor, substrate, and lysis buffer. Plate signal reading for luminescence on an EnVision plate reader (PerkinElmer) was conducted after 60 minutes of former step at room temperature. Raw data was collected and processed with Dotmatics (data analyzer) for test compound's potency values. The reference compound, 3-[5-(3,6-dimethoxyisoquinolin-1-yl)-1-oxo-2,3-dihydro-1H-isoindol-2-yl]piperidine-2,6-dione, at […] was used to define 75% response. Assay results for each compound were reported as DC50, the concentration giving 50% response, and Dmax, the maximum response observed with the compound.

Cyclin E1 = Cyclin E1 (Homo sapiens, UniProt P24864+Q96SW2); assay: Cyclin E1 Cellular Degradation Assay (MSD); parameters: endogenous in cells; host or cells: OVCAR3; details: for DC50 / Dmax: Cyclin E1 cellular degradation; for Dmax: maximum degradation; for Ratio of GSPT1 DC50/Cyclin E1 DC50: selectivity for degradation of Cyclin E1 over GSPT1
Cyclin E1, sequence (P24864 whole entry): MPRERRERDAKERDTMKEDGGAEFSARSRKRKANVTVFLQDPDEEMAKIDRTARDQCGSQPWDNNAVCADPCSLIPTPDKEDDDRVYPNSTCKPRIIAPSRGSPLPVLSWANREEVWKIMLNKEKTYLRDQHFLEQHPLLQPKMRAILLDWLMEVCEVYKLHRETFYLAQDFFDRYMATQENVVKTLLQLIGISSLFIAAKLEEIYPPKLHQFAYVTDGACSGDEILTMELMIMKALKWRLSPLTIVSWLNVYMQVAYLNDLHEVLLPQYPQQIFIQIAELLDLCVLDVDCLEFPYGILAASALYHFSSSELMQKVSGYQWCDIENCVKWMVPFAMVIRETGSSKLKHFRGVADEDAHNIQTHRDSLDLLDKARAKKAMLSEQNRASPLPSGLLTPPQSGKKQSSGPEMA
Cyclin E1, sequence (Q96SW2 whole entry): as the sequence (Q96SW2 whole entry, the tested form may be a part) above
Cyclin E1, sequence (Q16531 whole entry partner): as the sequence (Q16531 whole entry partner, the tested form may be a part) above
Experimental: Culturing cells: On Day 0, OVCAR3 cells were plated at 15,000 cells/well in 40 μL of culture medium (RPMI1640, 20% FBS, 0.01 insulin, 1% Anti/Anti) in a 384 well cell culture plate. Cell cultures were incubated for 24 hours at 37° C. and 5% CO2.
Coating MSD plates: On Day 1, rabbit anti-CCNE1 antibody (Abcam ab33911, 1 μg/mL in DPBS, […]) was dispensed to a Meso Scale Discovery plate (MSD L21XA). The MSD plate was spun briefly to ensure the solution coated the bottom of the well and incubated overnight at 4° C. On Day 2, the plate was washed 3 times with TBS +0.2% TWEEN, blocked for 1 hour with 3% MSD Blocker A (MSD R93AA-1, 30 μL/well), then washed again 3 times with TBS+0.2% TWEEN.
Treating and lysing cells: On Day 1, compounds of interest were dispensed into the cell cultures by acoustic dispensing technology. The cell cultures were then spun at 400 g for 4 minutes to disperse the compounds and incubated at 37° C. and 5% CO2 for 24 hours. After incubation, 40 μL of DPBS was added to the cell cultures to dilute the media. All liquid was gently discarded and immediately replaced with 30 μL of lysis buffer (MSD Tris Lysis buffer (MSD R60TX-2), Halt Protease inhibitor (ThermoFisher 78438), Phosphatase Inhibitor II (Sigma-Aldrich P5726), Phosphatase Inhibitor III (Sigma-Aldrich P0044), 0.02M PMSF (Sigma-Aldrich 7626), 0.1% SDS (VWR E719-100ML)). The plate was then sealed, shaken at 300 rpm at room temperature for 5 minutes, and freeze-thawed for optimum cell lysis.
Collecting data: After thawing, 25 μL of lysate was transferred to a coated MSD plate. The plate was then sealed and shaken at 300 rpm overnight in 4° C. On Day 3, the MSD plate was washed 3 times with TBS+0.2% TWEEN. Mouse anti-CCNE1 antibody (Abcam ab238081, 0.5 μg/mL in 1% MSD Blocker A, 10 μL/well) dispensed to the MSD plate, which was then sealed and shaken at room temperature for 3 hours. After the first antibody incubation, the plate was washed 3 times with TBS+0.2% TWEEN, then goat anti-mouse Sulfo-Tag antibody (MSD R32AC, 1 μg/mL in 1% MSD Blocker A, 10 μL/well) was dispensed to the MSD plate. The plate was sealed again and shaken at room temperature for 1 hour, then washed 3 times with TBS+0.2% TWEEN. After the final wash, 35 μL of 1× Read Buffer (MSD R92TC-1) was added to each well and the data was captured using the MSD plate reader. The reference compound, [2-(2,6-dioxopiperidin-3-yl)-4-methoxy-3-oxo-2,3-dihydro-1H-isoindol-5-yl]methyl N-[4-(3,4-difluorophenoxy)phenyl]carbamate, at […] was used to define […]. Assay results for each compound were reported as DC50, the concentration giving 50% response, and Dmax, the maximum response observed with the compound.

Compound: COc1c(COC(=O)Nc2ccc(Oc3ccccc3C(F)F)cc2)ccc2c1C(=O)N(C1CCC(=O)NC1=O)C2 (stereo not shown) [Example 85, [2-(2,6-dioxopiperidin-3-yl)-4-methoxy-3-oxo-2,3-dihydro-1H-isoindol-5-yl]methyl N-{4-[2-(difluoromethyl)phenoxy]phenyl}carbamate]
- pIC50 (Phospho-Rb (Ser807/811)): 6.93
- Emax (Phospho-Rb (Ser807/811)): 98%
- DC50 (GSPT1): > 14000 nM
- Dmax (GSPT1): 35%
- DC50 (Cyclin E1): 181 nM
- Dmax (Cyclin E1): 105%
- Ratio of GSPT1 DC50/Cyclin E1 DC50 (Cyclin E1): >77

Compound: CC(C)Oc1c(COC(=O)Nc2ccc(Oc3cccc(F)c3F)cc2)ccc2c1C(=O)N(C1CCC(=O)NC1=O)C2 (stereo not shown) [Example 120, [2-(2,6-dioxopiperidin-3-yl)-3-oxo-4-(propan-2-yloxy)-2,3-dihydro-1H-isoindol-5-yl]methyl N-[4-(2,3-difluorophenoxy)phenyl]carbamate]
- pIC50 (Phospho-Rb (Ser807/811)): 7.26
- Emax (Phospho-Rb (Ser807/811)): 121%
- DC50 (GSPT1): > 14000 nM
- Dmax (GSPT1): 6%
- DC50 (Cyclin E1): 148 nM
- Dmax (Cyclin E1): 108%
- Ratio of GSPT1 DC50/Cyclin E1 DC50 (Cyclin E1): >95

Compound: COc1c(COC(=O)Nc2ccc(Oc3ccccc3C3CC3)cc2)ccc2c1C(=O)N(C1CCC(=O)NC1=O)C2 (stereo not shown) [Example 87, [2-(2,6-dioxopiperidin-3-yl)-4-methoxy-3-oxo-2,3-dihydro-1H-isoindol-5-yl]methyl N-[4-(2-cyclopropylphenoxy)phenyl]carbamate]
- pIC50 (Phospho-Rb (Ser807/811)): 6.57
- Emax (Phospho-Rb (Ser807/811)): 98%
- DC50 (GSPT1): > 14000 nM
- Dmax (GSPT1): 39%
- DC50 (Cyclin E1): 414 nM
- Dmax (Cyclin E1): 100%
- Ratio of GSPT1 DC50/Cyclin E1 DC50 (Cyclin E1): >34

Compound: CC(C)(O)COc1c(COC(=O)Nc2ccc(Oc3cc(F)cc(F)c3)cc2F)ccc2c1C(=O)N(C1CCC(=O)NC1=O)C2 (stereo not shown) [Example 164, [2-(2,6-dioxopiperidin-3-yl)-4-(2-hydroxy-2-methylpropoxy)-3-oxo-2,3-dihydro-1H-isoindol-5-yl]methyl N-[4-(3,5-difluorophenoxy)-2-fluorophenyl]carbamate]
- pIC50 (Phospho-Rb (Ser807/811)): 7.60
- Emax (Phospho-Rb (Ser807/811)): 142%
- DC50 (GSPT1): > 14000 nM
- Dmax (GSPT1): 2%
- DC50 (Cyclin E1): 75 nM
- Dmax (Cyclin E1): 118%
- Ratio of GSPT1 DC50/Cyclin E1 DC50 (Cyclin E1): >187

Continued, in another order:

- pIC50 (Phospho-Rb (Ser807/811)): 6.37
- DC50 (GSPT1): > 14000 nM
- Dmax (GSPT1): 32%
- DC50 (Cyclin E1): 97 nM
- Dmax (Cyclin E1): 106%
- Ratio of GSPT1 DC50/Cyclin E1 DC50 (Cyclin E1): >145
Compound: COc1c(COC(=O)Nc2ccc(Oc3cccc(Cl)c3)cc2F)ccc2c1C(=O)N(C1CCC(=O)NC1=O)C2 (stereo not shown) [Example 26, [2-(2,6-dioxopiperidin-3-yl)-4-methoxy-3-oxo-2,3-dihydro-1H-isoindol-5-yl]methyl N-[4-(3-chlorophenoxy)-2-fluorophenyl]carbamate]
- Emax (Phospho-Rb (Ser807/811)): 96%

- pIC50 (Phospho-Rb (Ser807/811)): 7.64
- DC50 (GSPT1): > 14000 nM
- Dmax (GSPT1): 4%
- DC50 (Cyclin E1): 106 nM
- Dmax (Cyclin E1): 103%
- Ratio of GSPT1 DC50/Cyclin E1 DC50 (Cyclin E1): >133
Compound: O=C1CCC(N2Cc3ccc(COC(=O)Nc4ccc(Oc5ccc(F)cc5)cc4)c(O[C@@H]4CCCOC4)c3C2=O)C(=O)N1 (stereo partly drawn) [Example 144, [2-(2,6-dioxopiperidin-3-yl)-4-[(3R)-oxan-3-yloxy]-3-oxo-2,3-dihydro-1H-isoindol-5-yl]methyl N-[4-(4-fluorophenoxy)phenyl]carbamate]
- Emax (Phospho-Rb (Ser807/811)): 145%

- pIC50 (Phospho-Rb (Ser807/811)): 7.57
- DC50 (GSPT1): > 14000 nM
- Dmax (GSPT1): 5%
- DC50 (Cyclin E1): 17 nM
- Dmax (Cyclin E1): 110%
- Ratio of GSPT1 DC50/Cyclin E1 DC50 (Cyclin E1): >847
Compound: O=C1CCC(N2Cc3ccc(COC(=O)Nc4ccc(Oc5ccc(F)cc5)cc4F)c(OC4CCOCC4)c3C2=O)C(=O)N1 (stereo not shown) [Example 135, [2-(2,6-dioxopiperidin-3-yl)-4-(oxan-4-yloxy)-3-oxo-2,3-dihydro-1H-isoindol-5-yl]methyl N-[2-fluoro-4-(4-fluorophenoxy)phenyl]carbamate]
- Emax (Phospho-Rb (Ser807/811)): 148%
